According to patent US20260092074A1, “Annelated Pyridines as Steroidogenesis Inhibitors, Preparation Method and Use Thereof” (Guangzhou Vinnocent Pharmaceutical Limited, priority 2022, published 2026):

Assays:
human CYP11B1 = target: T1, human CYP11B1 (Homo sapiens, UniProt P15538); test: Inhibition of hCYP11B1 in transfected V79 cells; assay type: cell-based; conditions: hamster V79 cells expressing human CYP11B1; substrate 11-deoxycortisol 200 nM
T1 construct: expressed in transfected cells
T1 sequence (P15538 25-503): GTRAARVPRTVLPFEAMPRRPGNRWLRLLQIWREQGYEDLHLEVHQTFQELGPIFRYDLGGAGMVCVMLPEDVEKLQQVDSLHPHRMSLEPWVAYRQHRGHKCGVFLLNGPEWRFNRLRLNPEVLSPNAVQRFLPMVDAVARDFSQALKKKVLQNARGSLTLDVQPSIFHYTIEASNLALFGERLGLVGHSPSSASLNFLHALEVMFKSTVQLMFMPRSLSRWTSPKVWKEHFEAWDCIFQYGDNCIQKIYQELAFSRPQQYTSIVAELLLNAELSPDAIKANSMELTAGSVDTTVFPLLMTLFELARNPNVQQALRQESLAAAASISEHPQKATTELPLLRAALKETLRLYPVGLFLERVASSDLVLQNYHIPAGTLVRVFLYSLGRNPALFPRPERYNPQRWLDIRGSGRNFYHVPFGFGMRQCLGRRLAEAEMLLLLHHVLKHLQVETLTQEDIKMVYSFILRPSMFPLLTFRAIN
Experimental: (§1) Genes of human CYP11B1 and rat NADPH-P450 reductase were transfected into hamster V79 cells using a lentivirus vector, and stably-expressing cell lines were selected by taking advantages of the associated puromycin-resistance gene. Cultured cells were diluted and seeded in a 96-well plate with an amount of approximately 10,000 per well. After pre-incubation with suitable concentrations of the test compounds for 2 hours, 11-deoxycortisol of 200 nM was added as the substrate to initiate the catalytic reaction. After further incubation for 30 minutes, it was quenched with ethyl acetate. Subsequently, the substrate and product(s) were quantified using LC-MS/MS or HPLC at 260 nm, and the IC50 values were calculated according to inhibitory percentage.

human CYP11B2 = target: T2, human CYP11B2 (Homo sapiens, UniProt P19099); test: Inhibition of hCYP11B2 in transfected V79 cells; assay type: cell-based; conditions: hamster V79 cells expressing human CYP11B2; substrate 11-deoxycorticosterone 200 nM
T2 construct: expressed in transfected cells
T2 sequence (P19099 25-503): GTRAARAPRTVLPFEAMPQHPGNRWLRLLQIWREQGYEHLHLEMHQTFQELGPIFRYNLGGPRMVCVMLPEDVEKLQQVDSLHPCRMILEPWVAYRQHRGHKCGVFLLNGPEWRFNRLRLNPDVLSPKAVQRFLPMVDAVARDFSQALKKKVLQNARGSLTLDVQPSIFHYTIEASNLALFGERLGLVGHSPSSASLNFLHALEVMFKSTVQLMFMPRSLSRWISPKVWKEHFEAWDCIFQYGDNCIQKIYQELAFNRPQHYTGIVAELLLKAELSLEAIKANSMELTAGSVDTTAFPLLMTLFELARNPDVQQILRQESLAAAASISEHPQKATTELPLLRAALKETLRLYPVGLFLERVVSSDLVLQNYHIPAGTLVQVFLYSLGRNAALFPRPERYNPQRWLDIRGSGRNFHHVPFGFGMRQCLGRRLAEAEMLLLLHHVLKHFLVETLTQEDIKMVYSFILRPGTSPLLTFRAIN
Experimental: as §1, with “CYP11B2” for “CYP11B1”, “11-deoxycorticosterone” for “11-deoxycortisol”

| Structure (SMILES) | IC50 (human CYP11B1) [nM] | IC50 (human CYP11B2) [nM] |
| --- | --- | --- |
| N#Cc1ccc(-c2cncc3c2CCN3C(=O)c2cccc(F)c2)cc1 [C28, 4-(1-(3-fluorobenzoyl)-2,3-dihydro-1H-pyrrolo[2,3-c]pyridin-4-yl)benzonitrile] | 310 | 7 |
| N#Cc1ccc(-c2cncc3c2CCN3C(=O)c2cccnc2)cc1 [C29, 4-(1-Nicotinoyl-2,3-dihydro-1H-pyrrolo[2,3-c]pyridin-4-yl)benzonitrile] | 185 | 1.7 |
| N#Cc1ccc(-c2cncc3c2CCN3C(=O)c2ccc([N+](=O)[O-])cc2)cc1 [C30, 4-(1-(4-Nitrobenzoyl)-2,3-dihydro-1H-pyrrolo[2,3-c]pyridin-4-yl)benzonitrile] | 472 | 11 |
| N#Cc1ccc(-c2cncc3c2CCN3C(=O)c2ccccc2F)cc1 [C31, 4-(1-(2-Fluorobenzoyl)-2,3-dihydro-1H-pyrrolo[2,3-c]pyridin-4-yl)benzonitrile] | 305 | 4.6 |
| N#Cc1ccc(-c2cncc3c2CCN3C(=O)c2ccccc2C(F)(F)F)cc1 [C32, 4-(1-(2-(Trifluoromethyl)benzoyl)-2,3-dihydro-1H-pyrrolo[2,3-c]pyridin-4-yl)benzonitrile] | 233 | 18 |
| Cc1ccc(C(=O)N2CCc3c(-c4ccc(C#N)cc4)cncc32)cc1 [C33, 4-(1-(4-Methylbenzoyl)-2,3-dihydro-1H-pyrrolo[2,3-c]pyridin-4-yl)benzonitrile] | 245 | 25 |
| COc1ccccc1C(=O)N1CCc2c(-c3ccc(C#N)cc3)cncc21 [C34, 4-(1-(2-Methoxybenzoyl)-2,3-dihydro-1H-pyrrolo[2,3-c]pyridin-4-yl)benzonitrile] | 284 | 22 |
| N#Cc1ccc(-c2cncc3c2CCN3C(=O)c2ccccc2[N+](=O)[O-])cc1 [C35, 4-(1-(2-Nitrobenzoyl)-2,3-dihydro-1H-pyrrolo[2,3-c]pyridin-4-yl)benzonitrile] | 459 | 31 |
| Cc1ccccc1C(=O)N1CCc2c(-c3ccc(C#N)cc3)cncc21 [C36, 4-(1-(2-Methylbenzoyl)-2,3-dihydro-1H-pyrrolo[2,3-c]pyridin-4-yl)benzonitrile] | 297 | 28 |
| N#Cc1ccc(-c2cncc3c2CCN3C(=O)c2cccc(C#N)c2)cc1 [C37, 3-(4-(4-Cyanophenyl)-2,3-dihydro-1H-pyrrolo[2,3-c]pyridine-1-carbonyl)benzonitrile] | 766 | 60 |
| N#Cc1ccc(-c2cncc3c2CCN3C(=O)c2ccc(Cl)cc2)cc1 [C38, 4-(1-(4-Chlorobenzoyl)-2,3-dihydro-1H-pyrrolo[2,3-c]pyridin-4-yl)benzonitrile] | 606 | 40 |
| N#Cc1ccc(-c2cncc3c2CCN3C(=O)c2cccc(Cl)c2)cc1 [C39, 4-(1-(3-Chlorobenzoyl)-2,3-dihydro-1H-pyrrolo[2,3-c]pyridin-4-yl)benzonitrile] | 298 | 23 |
| Cc1cccc(C(=O)N2CCc3c(-c4ccc(C#N)cc4)cncc32)c1 [C40, 4-(1-(3-Methylbenzoyl)-2,3-dihydro-1H-pyrrolo[2,3-c]pyridin-4-yl)benzonitrile] | 352 | 29 |
| N#Cc1ccc(-c2cncc3c2CCN3C(=O)c2ccccc2)cc1 [C41, 4-(1-Benzoyl-2,3-dihydro-1H-pyrrolo[2,3-c]pyridin-4-yl)benzonitrile] | 353 | 40 |
| CC(C)(C)C(=O)N1CCc2c(-c3ccc(C#N)cc3)cncc21 [C42, 4-(1-Pivaloyl-2,3-dihydro-1H-pyrrolo[2,3-c]pyridin-4-yl)benzonitrile] | 1570 | 45 |
| N#Cc1ccc(-c2cncc3c2CCN3C(=O)CCl)cc1 [C43, 4-(1-(2-Chloroacetyl)-2,3-dihydro-1H-pyrrolo[2,3-c]pyridin-4-yl)benzonitrile] | 897 | 99 |

| Structure (SMILES) | IC50 (human CYP11B1) [nM] | IC50 (human CYP11B2) [nM] |
| --- | --- | --- |
| N#Cc1ccc(-c2cncc3c2CCN3C(=O)c2ccco2)cc1 [C44, 4-(1-(Furan-2-carbonyl)-2,3-dihydro-1H-pyrrolo[2,3-c]pyridin-4-yl)benzonitrile] | 139 | 27 |
| Cc1ccsc1C(=O)N1CCc2c(-c3ccc(C#N)cc3)cncc21 [C45, 4-(1-(3-Methylthiophene-2-carbonyl)-2,3-dihydro-1H-pyrrolo[2,3-c]pyridin-4-yl)benzonitrile] | 152 | 20 |
| N#Cc1ccc(-c2cncc3c2CCN3C(=O)c2cccs2)cc1 [C46, 4-(1-(Thiophene-2-carbonyl)-2,3-dihydro-1H-pyrrolo[2,3-c]pyridin-4-yl)benzonitrile] | 274 | 5.4 |
| COC(=O)c1ccc(C(=O)N2CCc3c(-c4ccc(C#N)cc4)cncc32)cc1 [C47] | 19 | 17 |
| N#Cc1ccc(C(=O)N2CCc3c(-c4ccc(C#N)cc4)cncc32)cc1 [C48, 4-(1-(4-Cyanobenzoyl)-2,3-dihydro-1H-pyrrolo[2,3-c]pyridin-4-yl)benzonitrile] | 762 | 7.3 |
| N#Cc1ccc(-c2cncc3c2CCN3C(=O)c2ccc(CBr)cc2)cc1 [C49, 4-(1-(4-(Bromomethyl)benzoyl)-2,3-dihydro-1H-pyrrolo[2,3-c]pyridin-4-yl)benzonitrile] | 971 | 25 |
| O=C(c1ccccc1F)N1CCc2c(-c3ccc4[nH]ncc4c3)cncc21 [C50, (4-(1H-Indazol-5-yl)-2,3-dihydro-1H-pyrrolo[2,3-c]pyridin-1-yl)(2-fluorophenyl)methanone] | 1270 | 97 |
| Cn1ncc2cc(-c3cncc4c3CCN4C(=O)c3ccccc3F)ccc21 [C51, (2-Fluorophenyl)(4-(1-methyl-1H-indazol-5-yl)-2,3-dihydro-1H-pyrrolo[2,3-c]pyridin-1-yl)methanone] | 4250 | 23 |
| O=C(c1ccccc1F)N1CCc2c(-c3cccc(F)c3)cncc21 [C52, (2-fluorophenyl)(4-(3-fluorophenyl)-2,3-dihydro-1H-pyrrolo[2,3-c]pyridin-1-yl)methanone] | 891 | 44 |
| O=C(c1ccccc1F)N1CCc2c(-c3cccc([N+](=O)[O-])c3)cncc21 [C53, (2-Fluorophenyl)(4-(3-nitrophenyl)-2,3-dihydro-1H-pyrrolo[2,3-c]pyridin-1-yl)methanone] | 378 | 11 |
| O=C(c1ccccc1F)N1CCc2c(-c3ccc(Cl)cc3)cncc21 [C54, (4-(4-Chlorophenyl)-2,3-dihydro-1H-pyrrolo[2,3-c]pyridin-1-yl)(2-fluorophenyl)methanone] | 895 | 45 |
| N#Cc1cccc(-c2cncc3c2CCN3C(=O)c2ccccc2F)c1 [C55, 3-(1-(2-Fluorobenzoyl)-2,3-dihydro-1H-pyrrolo[2,3-c]pyridin-4-yl)benzonitrile] | 973 | 29 |
| O=C(c1ccccc1F)N1CCc2c(-c3ccoc3)cncc21 [C56, (2-Fluorophenyl)(4-(furan-3-yl)-2,3-dihydro-1H-pyrrolo[2,3-c]pyridin-1-yl)methanone] | 522 | 103 |
| O=C(c1ccccc1F)N1CCc2c(-c3ccc4nccn4c3)cncc21 [C57, (2-Fluorophenyl)(4-(imidazo[1,2-a]pyridin-6-yl)-2,3-dihydro-1H-pyrrolo[2,3-c]pyridin-1-yl)methanone] | 876 | 27 |
| O=C(c1ccccc1F)N1CCc2c(-c3ccc4ncsc4c3)cncc21 [C58, (4-(benzo[d]thiazol-6-yl)-2,3-dihydro-1H-pyrrolo[2,3-c]pyridin-1-yl)(2-fluorophenyl)methanone] | 2640 | 75 |
